Results as given in patent US20240034743A9, “TRICYCLIC COMPOUNDS AS EGFR INHIBITORS” (QILU PHARMACEUTICAL CO., LTD., priority 2020, published 2024).
Like-named read-outs stand apart in the source and are kept apart here.

How the values were obtained:
[1] = tested on: Ba/F3_L858R/T790M/C797S cells; assay: Ba/F3_L858R/T790M/C797S cell proliferation inhibition assay (CellTiter-Glo); format: cell-based; settings: Mus musculus
Procedure: Ba/F3_L858R/T790M/C797S Cell Proliferation Inhibition Assay
In the assay, the inhibition effect of the compounds on the proliferation of Ba/F3_L858R/T790M/C797S cells was tested by adopting a CellTiter-Glo method, and the concentration IC50 of the compound for inhibiting half maximal growth of cells was obtained.
Ba/F3_L858R/T790M/C797S cells were constructed by Pharmaron Beijing Co., Ltd.
1640 medium, fetal bovine serum (FBS), Penicillin-Streptomyces, and GlutaMAX-I Supplement, purchased from GIBCO.
(§1) Brigatinib, purchased from Selleck.
(§2) CellTiter-Glo reagent, purchased from Promega.
1) Ba/F3_L858R/T790M/C797S cells were seeded in a 384-well plate at a density of 700 cells/well with 30 μL/well.
(§3) 2) Day 0: […] of gradiently-diluted compounds to be tested with a final concentration of DMSO of 0.1% was added to plate using Echo, and the plate was incubated in a cell incubator for 72 h (37° C., 5% CO2). […] of DMSO was added into each well in blank control group.
(§4) 3) Day 3: 30 μL Cell Titer-Glo reagent was added to each well, and the plate was in the dark under room temperature for 30 min.
(§5) 4) The chemiluminescent signal was detected by an Envision plate reader (PerkinElmer).
(§6) 5) Data analysis was performed using GraphPad Prism software to give the IC50 for compounds.

A431 cells (EGFR WT) = assay: A431 cell proliferation inhibition assay (CellTiter-Glo); format: cell-based; settings: Homo sapiens
Procedure: A431 Cell Proliferation Inhibition Assay
In the assay, the inhibition effect of the compounds on the proliferation of A431 cells was tested by adopting a CellTiter-Glo method, and the concentration IC50 of the compound for inhibiting half maximal growth of cells was obtained.
A431 cells, purchased from ATCC.
DMEM medium, fetal bovine serum (FBS), and Penicillin-Streptomycin, purchased from GIBCO.
as §1, §2
1) A431 cells were seeded in a 384-well plate at a density of 800 cells/well with 30 μL/well, and the plate was cultured in a cell incubator for 24 h (37° C., 5% CO2).
as §3, §4, §5, §6

[2] = tested on: Ba/F3_Del19/T790M/C797S cells; assay: Ba/F3_Del19/T790M/C797S cell proliferation inhibition assay (CellTiter-Glo); format: cell-based; settings: Mus musculus
Procedure: Ba/F3_Del19/T790M/C797S Cell Proliferation Inhibition Assay
In the assay, the inhibition effect of the compounds on the proliferation of Ba/F3_Del19/T790M/C797S cells was tested by adopting a CellTiter-Glo method, and the concentration IC50 of the compound for inhibiting half maximal growth of cells was obtained.
Ba/F3_Del19/T790M/C797S, purchased from Kyinno Biotechnology Co., Ltd. 1640 medium, fetal bovine serum (FBS), Penicillin-Streptomyces, and GlutaMAX-I Supplement, purchased from GIBCO.
as §1, §2
1) Ba/F3_Del19/T790M/C797S cells were seeded in a 384-well plate at a density of 700 cells/well with 30 μL/well.
as §3, §4, §5
Data analysis was performed using GraphPad Prism 6 software to give the IC50 for compounds.

EGFR WT (wild type EGFR) = EGFR WT (wild type EGFR) (Homo sapiens (Human), UniProt P00533); assay: In vitro enzymatic TR-FRET (HTRF KinEASE-TK) kinase assay, EGFR WT; format: biochemical; settings: kinase activity, TR-FRET; read-out: EGFR (WT) IC50
Procedure: (I) In Vitro Enzymatic Experiment for EGFR WT and EGFR L858R/T790M/C797S
In the assay, the inhibition effect of the compound on the kinase activity of EGFR WT (wild type EGFR) and EGFR L858R/T790M/C797S was tested by adopting a time-resolved fluorescence resonance energy transfer (TR-FRET) method, and half maximal inhibitory concentration IC50 of the compound on the kinase activity of EGFR was obtained.
EGFR recombinase and EGFR L858R/T790M/C797S recombinase, purchased from Signalchem.
HTRF KinEASE-TK kit, purchased from Cisbio.
DTT, MnCl2, and MgCl2, purchased from Sigma.
ATP, purchased from Promega.
as §1
1) 1× working solution was prepared: 5 mM MgCl2; 1 mM DTT; 1 mM MnCl2 and 1× kinase buffer (in kit).
2) […] of gradiently-diluted compound was transferred to a 384-well plate using Echo 550 (Labcyte).
3) 5 μL of 2× EGFR WT or EGFR L858R/T790M/C797S recombinase solution was added to the 384-well plate, and the plate was incubated at room temperature for 10 min.
4) 5 μL of 2× TK-substrate-biotin substrate solution (containing ATP) was added to the 384-well plate, and the plate was incubated at room temperature for 40 min.
5) 5 μL of assay solution containing Sa-XL 665 HTRF and 5 μL of TK-antibody-Cryptatewas were added to the plate, and the plate was incubated at room temperature for 1 h.
6) The fluorescence signal values at 615 nm and 665 nm were measured for each well using an Envision microplate reader (PerkinElmer).
7) The ratio of fluorescence signal values at 665 nm and 615 nm was calculated for each well.
8) Data analysis was performed using GraphPad Prism software to give the IC50 for compounds.

[3] = BaF3, cell proliferation, 72 h, CellTiter-Glo, read-out: Ba/F3 (L858R/T790M/C797S) IC50
[4] = A-431, cell proliferation, 72 h, CellTiter-Glo, read-out: A431 EGFR WT IC50
[5] = BaF3, cell proliferation, 72 h, CellTiter-Glo, read-out: Ba/F3 (Del19/T790M/C797S) IC50
[6] = BaF3, 72 h, read-out: Ba/F3 (L858R/T790M/C797S) IC50(nM)
[7] = A-431, 72 h, read-out: A431 EGFR WT IC50(nM)
[8] = BaF3, 72 h, read-out: Ba/F3 (Del19/T790M/C797S) IC50(nM)

EGFR WT (wild type EGFR), sequence (P00533 25-1210): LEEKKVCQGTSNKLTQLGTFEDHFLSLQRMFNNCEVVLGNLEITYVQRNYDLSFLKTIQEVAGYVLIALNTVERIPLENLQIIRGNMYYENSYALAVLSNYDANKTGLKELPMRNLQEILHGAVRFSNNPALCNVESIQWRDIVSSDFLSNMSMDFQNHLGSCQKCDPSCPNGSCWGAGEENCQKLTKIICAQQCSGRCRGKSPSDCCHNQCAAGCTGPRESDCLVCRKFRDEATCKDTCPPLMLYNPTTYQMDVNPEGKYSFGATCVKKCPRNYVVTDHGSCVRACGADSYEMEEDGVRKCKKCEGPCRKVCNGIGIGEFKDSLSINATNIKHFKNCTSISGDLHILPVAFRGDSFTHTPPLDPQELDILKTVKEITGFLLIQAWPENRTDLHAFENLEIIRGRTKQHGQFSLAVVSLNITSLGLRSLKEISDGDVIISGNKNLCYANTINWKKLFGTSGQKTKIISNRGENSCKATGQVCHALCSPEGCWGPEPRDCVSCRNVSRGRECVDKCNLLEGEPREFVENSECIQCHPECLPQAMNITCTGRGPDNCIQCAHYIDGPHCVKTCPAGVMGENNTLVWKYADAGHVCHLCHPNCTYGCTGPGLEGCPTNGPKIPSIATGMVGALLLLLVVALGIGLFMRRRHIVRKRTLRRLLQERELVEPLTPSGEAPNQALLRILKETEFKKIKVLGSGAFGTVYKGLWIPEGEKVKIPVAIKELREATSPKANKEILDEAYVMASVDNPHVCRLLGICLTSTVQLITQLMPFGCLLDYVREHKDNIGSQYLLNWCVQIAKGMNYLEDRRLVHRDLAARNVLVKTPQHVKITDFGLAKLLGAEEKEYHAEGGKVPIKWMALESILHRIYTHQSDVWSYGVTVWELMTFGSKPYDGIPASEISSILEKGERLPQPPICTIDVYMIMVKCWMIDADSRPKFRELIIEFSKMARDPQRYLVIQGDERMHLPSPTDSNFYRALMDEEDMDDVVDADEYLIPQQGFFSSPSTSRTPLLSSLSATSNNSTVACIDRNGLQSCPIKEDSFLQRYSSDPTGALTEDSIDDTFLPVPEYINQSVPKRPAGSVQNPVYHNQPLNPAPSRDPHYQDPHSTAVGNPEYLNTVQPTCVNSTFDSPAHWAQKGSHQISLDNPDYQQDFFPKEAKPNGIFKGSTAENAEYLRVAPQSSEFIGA

Structure (SMILES)	IC50 [1, 3] [nM]	IC50 (A431 cells (EGFR WT); [4]) [nM]	IC50 [2, 5] [nM]	IC50 (EGFR WT (wild type EGFR)) [µM]	IC50 [1, 6] [nM]	IC50 (A431 cells (EGFR WT); [7]) [nM]	IC50 [2, 8] [nM]
CNS(=O)(=O)c1ccccc1Nc1nc(Nc2cc3c(cc2OC)N(C(C)C)CCc2c-3cnn2C)ncc1Br [Compound 127]	100 to 1000	100 to 1000	100 to 1000				
COc1cc2c(cc1Nc1nc(Nc3ccc4nccnc4c3P(C)(C)=O)c3cc[nH]c3n1)-c1cnn(C)c1CCN2C [Compound 60]	< 10	10 to 50	< 10	0.001 to 0.01			
COc1cc2c(cc1Nc1ncc(Br)c(Nc3ccn4ccnc4c3NS(C)(=O)=O)n1)-c1cnn(C)c1CCN2C(C)C [Compound 110]	50 to 100	100 to 1000	10 to 50	0.001 to 0.01			
COc1cc2c(cc1Nc1ncc(C)c(Nc3ccc4nccnc4c3P(C)(C)=O)n1)-c1cnn(C)c1CCN2C(C)C [Compound 85]	< 10	100 to 1000	< 10				
COc1cc2c(cc1Nc1ncc(Br)c(Nc3ccc4nccnc4c3NS(C)(=O)=O)n1)-c1cnn(C)c1CCN2 [Compound 114]					< 10	100 to 1000	< 10
COc1cc2c(cc1Nc1ncc(Br)c(Nc3ccc4nccnc4c3P(C)(C)=O)n1)-c1cnn(C)c1CCN2C1CN(C(C)C)C1 [Compound 63]	< 10	10 to 50	< 10				
COc1cc2c(cc1Nc1ncc(Br)c(Nc3ccccc3P(C)(C)=O)n1)-c1cnn(C)c1CCC2N (stereo not drawn) [Compound 50]					10 to 50	100 to 1000	10 to 50
COc1cc2c(cc1Nc1ncc(Br)c(Nc3ccc4nccnc4c3P(C)(C)=O)n1)-c1cnn(C)c1CCN2C1CC1 [Compound 74]	< 10	100 to 1000	< 10				
COc1cc2c(cc1Nc1ncc(Br)c(Nc3ccc4nccnc4c3P(C)(C)=S)n1)-c1cnn(C)c1CCN2C1CC2(C1)CN(C)C2 [Compound 93]					10 to 50	10 to 50	< 10
COc1cc2c(cc1Nc1ncc(Br)c(Nc3ccc4nccnc4c3P(C)(C)=O)n1)-c1cnn(C)c1CCN2C [Compound 1]	< 10	50 to 100	< 10				
COc1cc2c(cc1Nc1ncc(Br)c(Nc3ccccc3NS(C)(=O)=O)n1)-c1cnn(C)c1CCN2C [Compound 32]	< 10	100 to 1000	< 10				
COc1cc2c(cc1Nc1ncc(Br)c(Nc3ccc4nccnc4c3P(C)(C)=O)n1)-c1cnn(C)c1CCN2C1CC2(C1)CN(C)C2 [Compound 89]	10 to 50	10 to 50	10 to 50				
COc1cc2c(cc1Nc1ncc(Br)c(Nc3ccccc3N(C(C)C)S(C)(=O)=O)n1)-c1cnn(C)c1CCN2C(C)C [Compound 124]	10 to 50	> 1000	10 to 50				
COc1cc2c(cc1Nc1ncc(Br)c(Nc3ccc4nccnc4c3P(C)(C)=O)n1)-c1cnn(C)c1CCN2C1CCN(C)CC1F (stereo not drawn) [Compound 67]	< 10	50 to 100	< 10				
COc1cc2c(cc1Nc1ncc(Br)c(Nc3ccc4nccnc4c3P(C)(C)=O)n1)-c1cnn(C)c1CCN2C1CCOCC1 [Compound 88]	< 10	50 to 100	< 10				
COc1cc2c(cc1Nc1ncc(Br)c(Nc3ccc4nccnc4c3P(C)(C)=S)n1)-c1cnn(C)c1CCN2C1CCN(C)CC1 [Compound 76]					< 10	50 to 100	< 10

Second part, led by results:

IC50 [1, 3] [nM]	IC50 (A431 cells (EGFR WT); [4]) [nM]	IC50 [2, 5] [nM]	IC50 (EGFR WT (wild type EGFR)) [µM]	Structure (SMILES)	IC50 [1, 6] [nM]	IC50 (A431 cells (EGFR WT); [7]) [nM]	IC50 [2, 8] [nM]
< 10	100 to 1000	< 10	0.001 to 0.01	COc1cc2c(cc1Nc1ncc(Cl)c(Nc3ccccc3P(C)(C)=O)n1)-c1cnn(C)c1CCN2C [Compound 14]			
< 10	100 to 1000	< 10	0.001 to 0.01	COc1cc2c(cc1Nc1ncc(Br)c(Nc3ccccc3P(C)(C)=O)n1)-c1cnn(C)c1CCN2CCN1CCC(F)CC1 [Compound 41]			
< 10	10 to 50	< 10		COc1cc2c(cc1Nc1ncc(Br)c(Nc3ccc4nccnc4c3P(C)(C)=O)n1)-c1cnn(C)c1CCN2C1CN(CC2CC2)C1 [Compound 70]			
10 to 50	100 to 1000	10 to 50	0.01 to 0.05	COc1nc2c(cc1Nc1ncc(Br)c(Nc3ccccc3P(C)(C)=O)n1)-c1cnn(C)c1CCN2C [Compound 79]			
10 to 50	100 to 1000	10 to 50	0.01 to 0.05	COc1cc2c(cc1Nc1ncc(Br)c(Nc3ccccc3P(C)(C)=O)n1)-c1cnn(C)c1CCN2CC(F)(F)F [Compound 73]			
10 to 50	100 to 1000	10 to 50		COc1cc2c(cc1Nc1ncc(Br)c(Nc3ccccc3P(C)(C)=O)n1)-c1cnn(C)c1CCN2C1CN(C)C1 [Compound 59]			
< 10	50 to 100	< 10		COc1cc2c(cc1Nc1ncc(Cl)c(Nc3ccc4nccnc4c3P(C)(C)=O)n1)-c1cnn(C)c1CCN2C [Compound 13]			
< 10	10 to 50	< 10		COc1cc2c(cc1Nc1ncc(Br)c(Nc3ccc4nccnc4c3P(C)(C)=O)n1)-c1cnn(C)c1CCN2C1CC2(C1)CN(C(C)C)C2 [Compound 90]			
10 to 50	100 to 1000	< 10		COc1cc2c(cc1Nc1ncc(Br)c(Nc3ccccc3P(C)(C)=O)n1)-c1cnn(C)c1CCN2C1COC1 [Compound 64]			
< 10	100 to 1000	< 10		COc1cc2c(cc1Nc1ncc(Br)c(Nc3ccc4nccnc4c3NS(C)(=O)=O)n1)-c1cnn(C)c1CCN2CC(C)C [Compound 133]			
< 10	100 to 1000	< 10		COc1cc2c(cc1Nc1ncc(Br)c(Nc3ccccc3P(C)(C)=O)n1)-c1cnn(C)c1CCN2C1CN(CCF)C1 [Compound 69]			
< 10	10 to 50	< 10		COc1cc2c(cc1Nc1ncc(Br)c(Nc3ccc4nccnc4c3P(C)(C)=O)n1)-c1cnn(C)c1CCN2C1CCCN(C)C1 (stereo not drawn) [Compound 84]			
< 10	100 to 1000	< 10		CCN1CCc2c(cnn2C)-c2cc(Nc3ncc(Br)c(Nc4ccc5nccnc5c4NS(C)(=O)=O)n3)c(OC)cc21 [Compound 139]			
< 10	10 to 50	< 10		COc1cc2c(cc1Nc1ncc(Br)c(Nc3ccc4nccnc4c3P(C)(C)=O)n1)-c1cnn(C)c1CCN2C1CCN(C)CC1 [Compound 62]			
